Reference: patent US9527867B2, “Antibacterial biaromatic derivatives” (Actelion Pharmaceuticals Ltd., priority 2013, dated 2016)
≈ marks a conversion by molar mass, not a printed value.

Experiments:
Test in all cases: Bacterial growth minimal inhibitory concentration (broth microdilution, CLSI M7-A7)
Type in all cases: cell-based
[1] = system: Staphylococcus aureus A798; details: Staphylococcus aureus, A798, cation-adjusted Mueller-Hinton Broth, multiply-resistant strain (in particular quinolone-resistant), read-out: MIC for S. aureus A798
Protocol: (§1) Minimal Inhibitory Concentrations (MICs; mg/L) were determined in cation-adjusted Mueller-Hinton Broth by a microdilution method following the description given in “Methods for Dilution Antimicrobial Susceptibility Tests for Bacteria that Grow Aerobically”, Approved standard, 7th ed., Clinical and Laboratory Standards Institute (CLSI) Document M7-A7, Wayne, Pa., USA (2006).
(§2) All Example compounds were tested against several Gram positive and Gram negative bacteria. […] Staphylococcus aureus A798, Enterococcus faecium A949 and Acinetobacter baumannii T6474 are multiply-resistant strains (in particular quinolone-resistant), while Moraxella catarrhalis A894 is a quinolone-sensitive strain and Staphylococcus aureus ATCC29213 is a methicillin-sensitive and quinolone-sensitive strain.

[2] = system: Enterococcus faecium A949; details: Enterococcus faecium, A949, cation-adjusted Mueller-Hinton Broth, multiply-resistant strain (in particular quinolone-resistant), read-out: MIC for E. faecium A949
Protocol: as §1, §2

[3] = system: Staphylococcus aureus ATCC29213; details: Staphylococcus aureus, ATCC29213, cation-adjusted Mueller-Hinton Broth, methicillin-sensitive and quinolone-sensitive strain, read-out: MIC for S. aureus ATCC29213
Protocol: as §1, §2

[4] = system: Moraxella catarrhalis A894; details: Moraxella catarrhalis, A894, cation-adjusted Mueller-Hinton Broth, quinolone-sensitive strain
Protocol: as §1, §2

[5] = system: Acinetobacter baumannii T6474; details: Acinetobacter baumannii, T6474, cation-adjusted Mueller-Hinton Broth, multiply-resistant strain (in particular quinolone-resistant)
Protocol: as §1, §2

| Structure (SMILES) | MIC [1] [µg/mL] | MIC [2] [µg/mL] | MIC [3] [µg/mL] | MIC [4] [µg/mL] | MIC [5] [µg/mL] |
| --- | --- | --- | --- | --- | --- |
| COc1ccnc(-c2cccc(CNCC[C@@H]3CN(c4ccc5c(c4)NC(=O)CS5)C(=O)O3)c2)c1 [Example 14, 6-((R)-5-{2-[3-(4-methoxy-pyridin-2-yl)-benzylamino]-ethyl}-2-oxo-oxazolidin-3-yl)-4H-benzo[1,4]thiazin-3-one] | 0.125 (≈ 0.255 µM) | 2 (≈ 4.08 µM) | 0.125 (≈ 0.255 µM) | ≤ 0.016 | 0.25 (≈ 0.51 µM) |
| COc1cccc(-c2cccc(CNCC[C@@H]3CN(c4ccc5c(c4)NC(=O)CS5)C(=O)O3)c2)n1 [Example 15, 6-((R)-5-{2-[3-(6-methoxy-pyridin-2-yl)-benzylamino]-ethyl}-2-oxo-oxazolidin-3-yl)-4H-benzo[1,4]thiazin-3-one] | 0.031 (≈ 0.0632 µM) | 0.5 (≈ 1.02 µM) | 0.063 (≈ 0.128 µM) | ≤ 0.016 | 0.125 (≈ 0.255 µM) |
| COc1ccc(-c2cccc(CNCC[C@@H]3CN(c4ccc5c(c4)NC(=O)CS5)C(=O)O3)c2)cn1 [Example 16, 6-((R)-5-{2-[3-(6-methoxy-pyridin-3-yl)-benzylamino]-ethyl}-2-oxo-oxazolidin-3-yl)-4H-benzo[1,4]thiazin-3-one] | 0.5 (≈ 1.02 µM) | 2 (≈ 4.08 µM) | 0.5 (≈ 1.02 µM) | 0.063 (≈ 0.128 µM) | 1 (≈ 2.04 µM) |
| N#Cc1cncc(-c2cccc(CNCC[C@@H]3CN(c4ccc5c(c4)NC(=O)CS5)C(=O)O3)c2)c1 [Example 17, 5-[3-({2-[(R)-2-oxo-3-(3-oxo-3,4-dihydro-2H-benzo[1,4]thiazin-6-yl)-oxazolidin-5-yl]-ethylamino}-methyl)-phenyl]-nicotinonitrile] | 0.125 (≈ 0.257 µM) | 1 (≈ 2.06 µM) | 0.063 (≈ 0.13 µM) | ≤ 0.016 | 0.125 (≈ 0.257 µM) |
| N#Cc1cccc(-c2cccc(CNCC[C@@H]3CN(c4ccc5c(c4)NC(=O)CS5)C(=O)O3)c2)n1 [Example 18, 6-[3-({2-[(R)-2-oxo-3-(3-oxo-3,4-dihydro-2H-benzo[1,4]thiazin-6-yl)-oxazolidin-5-yl]-ethylamino}-methyl)-phenyl]-pyridine-2-carbonitrile] | 0.25 (≈ 0.515 µM) | 4 (≈ 8.24 µM) | 0.25 (≈ 0.515 µM) | 0.031 (≈ 0.0638 µM) | 0.25 (≈ 0.515 µM) |
| N#Cc1cnc(O)c(-c2cccc(CNCC[C@@H]3CN(c4ccc5c(c4)NC(=O)CS5)C(=O)O3)c2)c1 [Example 19, 6-hydroxy-5-[3-({2-[(R)-2-oxo-3-(3-oxo-3,4-dihydro-2H-benzo[1,4]thiazin-6-yl)-oxazolidin-5-yl]-ethylamino}-methyl)-phenyl]-nicotinonitrile] | 1 (≈ 1.99 µM) | > 8 | 1 (≈ 1.99 µM) | 0.125 (≈ 0.249 µM) | 1 (≈ 1.99 µM) |
| COc1cccc(-c2cccc(CNCC[C@@H]3CN(c4ccc5c(c4)NC(=O)CS5)C(=O)O3)n2)c1 [Example 20, 6-[(R)-5-(2-{[6-(3-methoxy-phenyl)-pyridin-2-ylmethyl]-amino}-ethyl)-2-oxo-oxazolidin-3-yl]-4H-benzo[1,4]thiazin-3-one] | 0.25 (≈ 0.51 µM) | 1 (≈ 2.04 µM) | 0.125 (≈ 0.255 µM) | 0.063 (≈ 0.128 µM) | 0.5 (≈ 1.02 µM) |
| COc1cccc(-c2ccnc(CNCC[C@@H]3CN(c4ccc5c(c4)NC(=O)CS5)C(=O)O3)c2)c1 [Example 21, 6-[(R)-5-(2-{[4-(3-methoxy-phenyl)-pyridin-2-ylmethyl]-amino}-ethyl)-2-oxo-oxazolidin-3-yl]-4H-benzo[1,4]thiazin-3-one] | 0.125 (≈ 0.255 µM) | 1 (≈ 2.04 µM) | 0.125 (≈ 0.255 µM) | 0.031 (≈ 0.0632 µM) | 0.25 (≈ 0.51 µM) |
| COc1cccc(-c2cccc(CNCC[C@@H]3CN(c4ccc5c(c4)NC(=O)CS5)C(=O)O3)n2)n1 [Example 22, 6-((R)-5-{2-[(6′-methoxy-[2,2]bipyridinyl-6-ylmethyl)-amino]-ethyl}-2-oxo-oxazolidin-3-yl)-4H-benzo[1,4]thiazin-3-one] | 0.5 (≈ 1.02 µM) | 2 (≈ 4.07 µM) | 0.25 (≈ 0.509 µM) | 0.063 (≈ 0.128 µM) | 1 (≈ 2.03 µM) |
| COc1ccnc(-c2cccc(CNCC[C@@H]3CN(c4ccc5c(c4)NC(=O)CS5)C(=O)O3)c2)n1 [Example 23, 6-((R)-5-{2-[3-(4-methoxy-pyrimidin-2-yl)-benzylamino]-ethyl}-2-oxo-oxazolidin-3-yl)-4H-benzo[1,4]thiazin-3-one] | 0.063 (≈ 0.128 µM) | 1 (≈ 2.03 µM) | 0.063 (≈ 0.128 µM) | ≤ 0.016 | 0.25 (≈ 0.509 µM) |
| COc1cc(-c2cccc(CNCC[C@@H]3CN(c4ccc5c(c4)NC(=O)CS5)C(=O)O3)c2)ncn1 [Example 24, 6-((R)-5-{2-[3-(6-methoxy-pyrimidin-4-yl)-benzylamino]-ethyl}-2-oxo-oxazolidin-3-yl)-4H-benzo[1,4]thiazin-3-one] | 0.5 (≈ 1.02 µM) | 4 (≈ 8.14 µM) | 0.5 (≈ 1.02 µM) | 0.063 (≈ 0.128 µM) | 1 (≈ 2.03 µM) |
| COc1cncc(-c2cccc(CNCC[C@@H]3CN(c4ccc5c(c4)NC(=O)CS5)C(=O)O3)c2)n1 [Example 25, 6-((R)-5-{2-[3-(6-methoxy-pyrazin-2-yl)-benzylamino]-ethyl}-2-oxo-oxazolidin-3-yl)-4H-benzo[1,4]thiazin-3-one] | 0.031 (≈ 0.0631 µM) | 1 (≈ 2.03 µM) | 0.031 (≈ 0.0631 µM) | ≤ 0.016 | 0.25 (≈ 0.509 µM) |
| COc1cc(-c2cccc(CNCC[C@@H]3CN(c4ccc5c(c4)NC(=O)CS5)C(=O)O3)c2)nc(OC)n1 [Example 26, 6-((R)-5-{2-[3-(2,6-dimethoxy-pyrimidin-4-yl)-benzylamino]-ethyl}-2-oxo-oxazolidin-3-yl)-4H-benzo[1,4]thiazin-3-one] | 0.25 (≈ 0.479 µM) | 4 (≈ 7.67 µM) | 0.5 (≈ 0.959 µM) | 0.063 (≈ 0.121 µM) | 2 (≈ 3.83 µM) |
| COc1cc(OC)nc(-c2cccc(CNCC[C@@H]3CN(c4ccc5c(c4)NC(=O)CS5)C(=O)O3)c2)n1 [Example 27, 6-((R)-5-{2-[3-(4,6-dimethoxy-pyrimidin-2-yl)-benzylamino]-ethyl}-2-oxo-oxazolidin-3-yl)-4H-benzo[1,4]thiazin-3-one] | 0.031 (≈ 0.0594 µM) | 1 (≈ 1.92 µM) | 0.063 (≈ 0.121 µM) | ≤ 0.016 | 0.5 (≈ 0.959 µM) |
| COc1nc(OC)nc(-c2cccc(CNCC[C@@H]3CN(c4ccc5c(c4)NC(=O)CS5)C(=O)O3)c2)n1 [Example 28, 6-((R)-5-{2-[3-(4,6-dimethoxy-[1,3,5]triazin-2-yl)-benzylamino]-ethyl}-2-oxo-oxazolidin-3-yl)-4H-benzo[1,4]thiazin-3-one] | 0.25 (≈ 0.478 µM) | 4 (≈ 7.65 µM) | 0.25 (≈ 0.478 µM) | 0.063 (≈ 0.121 µM) | 1 (≈ 1.91 µM) |
| COc1cc(-c2cccc(CNCC[C@@H]3CN(c4ccc5c(c4)NC(=O)CS5)C(=O)O3)c2)ccc1C(N)=O [Example 29, 3-methoxy-3′-({2-[(R)-2-oxo-3-(3-oxo-3,4-dihydro-2H-benzo[1,4]thiazin-6-yl)-oxazolidin-5-yl]-ethylamino}-methyl)-biphenyl-4-carboxylic acid amide] | 2 (≈ 3.76 µM) | 8 (≈ 15 µM) | 1 (≈ 1.88 µM) | 0.063 (≈ 0.118 µM) | 2 (≈ 3.76 µM) |
| COc1cnnc(-c2cccc(CNCC[C@@H]3CN(c4ccc5c(c4)NC(=O)CS5)C(=O)O3)c2)c1 [Example 30, 6-((R)-5-{2-[3-(5-methoxy-pyridazin-3-yl)-benzylamino]-ethyl}-2-oxo-oxazolidin-3-yl)-4H-benzo[1,4]thiazin-3-one] | 0.125 (≈ 0.254 µM) | 4 (≈ 8.14 µM) | 0.125 (≈ 0.254 µM) | 0.031 (≈ 0.0631 µM) | 0.25 (≈ 0.509 µM) |
